Laboratory results taken from patent publication US10364216B2, “Alkenyl sulfate ester or salt thereof” (Kao Corporation, priority 2013, dated 2019).
Where a name gives a salt, the structure may show the parent alone. Residues, ends and D or L forms follow the SMILES beside them.

Assays:
Type in all cases: in vivo, human
[1] = Sweetness adjusting action on sucrose, aspartame, sucralose, glycyrrhizin (simultaneous intake); settings: sucrose 7.5 wt %, aspartame 494 ppm, sucralose 0.49 mM, glycyrrhizin 303 ppm, alone or containing 5 mM trans-3-octenyl sulfate, scale 0 to 15; for Sweetness intensity (mean) When drinking water after 30 seconds: 10 mL pure water 30 seconds after sample; for Sweetness intensity (mean) When drinking sample: 10 mL
Description: To seven examiners, four kinds of 10 mL aqueous sucrose standard solutions (2.5, 5.0, 7.5 and 10.0 wt %) were presented. The examiners kept each of the solutions in their mouth for 5 seconds or so, and then spat the solution out, and were asked to consider the sweetness intensity at that time (0 to 15) to be 2.5, 5, 7.5 and 10, respectively. Next, the examiners kept 10 mL aqueous solution (7.5 wt %) of sucrose in their mouth for 5 seconds or so without knowing the kind and the concentration of the sweetener, and then spat the solution out, and compared the sweetness intensity at that time with that of the aqueous sucrose standard solution, and evaluated the sweetness intensity with a number in a range of 0 to 15. In addition, after 30 seconds, the examiners kept 10 mL pure water in their mouth, and then spat the solution out, and compared the sweetness intensity felt at that time with that of the aqueous sucrose standard solution, and evaluated the sweetness intensity in the same manner. Subsequently, the examiners were presented with 10 mL aqueous sucrose solution containing 5 mM trans-3-octenyl sulfate (7.5 wt %), and kept it in their mouth for 5 seconds or so, and then spat the solution out, and compared the sweetness intensity at that time with the sweetness intensity of the aqueous sucrose standard solution, and evaluated the sweetness intensity in the same manner. In addition, immediately after that, the examiners kept 10 mL pure water in their mouth for 5 seconds or so, and then spat the solution out, and compared the sweetness intensity at that time with that of the aqueous sucrose standard solution, and evaluated the sweetness intensity in the same manner. In addition, after 30 seconds, the examiners kept 10 mL pure water in their mouth, and then spat the solution out, and compared the sweetness intensity felt at that time with that of the aqueous sucrose standard solution, and evaluated the sweetness intensity in the same manner.
To seven examiners, 4 kinds of 10 mL aqueous sucrose standard solutions (2.5, 5.0, 7.5 and 10.0 wt %) were presented. The examiners kept each of the solutions in their mouth for 5 seconds or so, and then spat the solution out, and were asked to consider the sweetness intensity at that time (0 to 15) to be 2.5, 5, 7.5 and 10, respectively. Next, the examiners kept 10 mL aqueous solution of aspartame (494 ppm) in their mouth for 5 seconds or so without knowing the kind and the concentration of the sweetener, and then spat the solution out, and compared the sweetness intensity at that time with that of the aqueous sucrose standard solution, and evaluated the sweetness intensity with a number in a range of 0 to 15. The concentration of aspartame was prepared to have the same sweetness intensity as that of the aqueous sucrose solution (7.5 wt %) in accordance with the reference (Schiffman, S. S. et al. Chemical senses, 1999, 24, 439-447.). In addition, after 30 seconds, the examiners kept 10 mL pure water in their mouth, and then spat the solution out, and compared the sweetness intensity felt at that time with that of the aqueous sucrose standard solution, and evaluated the sweetness intensity in the same manner. Subsequently, the examiners were presented with 10 mL aqueous solution of aspartame containing 5 mM trans-3-octenyl sulfate (494 ppm), and kept it in their mouth for 5 seconds or so, and then spat the solution out, and compared the sweetness intensity at that time with the sweetness intensity of the sucrose standard solution, and evaluated the sweetness intensity in the same manner. In addition, after 30 seconds, the examiners kept 10 mL pure water in their mouth, and then spat the solution out, and compared the sweetness intensity felt at that time with that of the aqueous sucrose standard solution, and evaluated the sweetness intensity in the same manner. […]

[2] = Action of reinforcing sweetness (previous intake of trans-3-octenyl sulfate); settings: scale 0 to 15, six examiners
Description: To six examiners, 4 kinds of 10 mL aqueous solutions of sucrose standard (2.5, 5.0, 7.5 and 10.0 wt %) were presented. The examiners kept each of the solutions in their mouth for 5 seconds or so, and then spat the solution out, and were asked to consider the sweetness intensity at that time (0 to 15) to be 2.5, 5, 7.5 and 10, respectively. Next, the examiners kept 10 mL aqueous solution of sucralose (0.25 mM) in their mouth for 5 seconds or so without knowing the kind and the concentration of the sweetener, and then spat the solution out, and compared the sweetness intensity at that time with that of the aqueous sucrose standard solution, and evaluated the sweetness intensity with a number in a range of 0 to 15. Subsequently, the examiners kept 10 mL solution of 5 mM trans-3-octenyl sulfate in advance in their mouth for 5 seconds or so in advance, and then spat the solution out, and after passage of 60 seconds, the examiners kept 10 mL aqueous solution of sucralose (0.25 mM) in their mouth for 5 seconds or so, and then spat the solution out, and compared the sweetness intensity at that time with that of the aqueous sucrose standard solution, and evaluated the sweetness intensity with a number in a range of 0 to 15.
To six examiners, 4 kinds of 10 mL aqueous sucrose standard solutions (2.5, 5.0, 7.5 and 10.0 wt %) were presented. The examiners kept each of the solutions in their mouth for 5 seconds or so, and then spat the solution out, and were asked to consider the sweetness intensity at that time (0 to 15) to be 2.5, 5, 7.5 and 10, respectively. Next, the examiners kept 10 mL aqueous solution of glycyrrhizin (0.25 mM) in their mouth for 5 seconds or so without knowing the kind and the concentration of the sweetener, and then spat the solution out, and compared the sweetness intensity at that time with that of the aqueous sucrose standard solution, and evaluated the sweetness intensity with a number in a range of 0 to 15. Subsequently, the examiners kept 10 mL solution of 5 mM trans-3-octenyl sulfate in their mouth for 5 seconds or so in advance, and then spat the solution out, and after passage of 60 seconds, the examiners kept 10 mL aqueous solution of glycyrrhizin (0.25 mM) in their mouth for 5 seconds or so, and then spat the solution out, and compared the sweetness intensity at that time with that of the aqueous sucrose standard solution, and evaluated the sweetness intensity with a number in a range of 0 to 15.

[3] = Evaluation of sweetness (1)/(2): presence or absence of sweetness judged by examiners
Description: Trans-3-octenyl sulfate was dissolved in water to be 1 wt %, which was taken as a test sample. Six examiners kept 50 μL of the prepared test sample in their mouth, and then drunk some water, and judged for presence or absence of sweetness.
Cis-3-octenyl sulfate was dissolved in water to 1 wt %, which was taken as a test sample. Four examiners kept 50 μL of the prepared test sample in their mouth, and then drunk some water, and judged presence or absence of sweetness.

[4] = Evaluation of sweetness (3)/(4): sweetness intensity over time against sucrose standard solutions
Description: (§1) To seven examiners, 4 kinds of 10 mL aqueous sucrose standard solutions (2.5, 5.0, 7.5 and 10.0 wt %) were presented. The examiners kept each of the solutions in their mouth for 5 seconds or so, and then spat the solution out, and were asked to consider the sweetness intensity at that time (0 to 15) to be 2.5, 5, 7.5 and 10, respectively. Next, the examiners kept 10 mL solution of 10 mM trans-3-octenyl sulfate in their mouth for 5 seconds or so, and then spat the solution out, and compared the sweetness intensity at that time with that of the aqueous sucrose standard solution, and evaluated the sweetness intensity with a number in a range of 0 to 15. Then, the examiners kept 10 mL pure water for 5 minutes at an interval of 30 seconds, and then spat the solution out, and evaluated the sweetness intensity at that time in the same manner.
as §1, with “four” for “4”, “cis-3-octenyl” for “trans-3-octenyl”, “water in their mouth” for “water”

[5] = No previous intake of trans-3-octenyl sulfate, 10 mL sweetener 0.25 mM
[6] = Previous intake of 10 mL 5 mM trans-3-octenyl sulfate, 60 seconds before 10 mL sweetener 0.25 mM
[7] = 1 wt % in water, 50 μL kept in mouth, then water (13 ml), six examiners (trans), four examiners (cis)

SMILES: OC[C@H]1O[C@H](O[C@]2(CCl)O[C@H](CCl)[C@@H](O)[C@@H]2O)[C@H](O)[C@@H](O)[C@H]1Cl [Sucralose, sucralose]
- Sweetness intensity (mean) When drinking water after 30 seconds [1]: 0.4
- Sweetness intensity (mean) When drinking sample [1]: 8.4
- Sweetness intensity (mean) [2, 5]: 7.3
- Sweetness intensity (mean) [2, 6]: 10.2

SMILES: OC[C@H]1O[C@@](CO)(O[C@H]2O[C@H](CO)[C@@H](O)[C@H](O)[C@H]2O)[C@@H](O)[C@@H]1O [Sucrose, sucrose]
- Sweetness intensity (mean) When drinking water after 30 seconds [1]: 0.1
- Sweetness intensity (mean) When drinking sample [1]: 7.1

SMILES: CC1(C)[C@@H](O[C@H]2O[C@H](C(=O)O)[C@@H](O)[C@H](O)[C@H]2O[C@@H]2O[C@H](C(=O)O)[C@@H](O)[C@H](O)[C@H]2O)CC[C@]2(C)[C@H]3C(=O)C=C4[C@@H]5C[C@@](C)(C(=O)O)CC[C@]5(C)CC[C@@]4(C)[C@]3(C)CC[C@@H]12 [Glycyrrhizin, glycyrrhizin]
- Sweetness intensity (mean) When drinking water after 30 seconds [1]: 3.2
- Sweetness intensity (mean) When drinking sample [1]: 4.1
- Sweetness intensity (mean) [2, 5]: 3.4
- Sweetness intensity (mean) [2, 6]: 7.3

SMILES: COC(=O)[C@H](Cc1ccccc1)NC(=O)[C@@H](N)CC(=O)O [Aspartame, aspartame] (H-Asp-Phe-OMe)
- Sweetness intensity (mean) When drinking water after 30 seconds [1]: 1.0
- Sweetness intensity (mean) When drinking sample [1]: 7.1

SMILES: CCCC/C=C\CCOS(=O)(=O)O [cis-3-octenyl sulfate]
- No sweetness felt (number of examiners) [3, 7]: 0
- Sweetness felt (number of examiners) [3, 7]: 4
- Duration of sweetness ([3]; 1 wt %, 50 μL, then water): the sweetness lasted for a certain time
- Examiners who recognized the sweetness by virtue of intake of water ([4]; 10 mL of 10 mM solution, then pure water every 30 seconds): seven out of the seven
- Duration of sweetness ([4]; 10 mL of 10 mM solution, then pure water every 30 seconds for 5 minutes): the sweetness lasted for a certain time
- Sweetness intensity (mean) ([4]; Time 0 minute, 10 mL of 10 mM solution kept 5 seconds, scale 0 to 15 vs sucrose standards, seven examiners): 0.0
- Sweetness intensity (mean) ([4]; Time 0.5 minute, on keeping 10 mL pure water, after 10 mM solution, scale 0 to 15): 1.8
- Sweetness intensity (mean) ([4]; Time 1 minute, on keeping 10 mL pure water, after 10 mM solution, scale 0 to 15): 3.2
- Sweetness intensity (mean) ([4]; Time 1.5 minute, on keeping 10 mL pure water, after 10 mM solution, scale 0 to 15): 3.4
- Sweetness intensity (mean) ([4]; Time 2 minute, on keeping 10 mL pure water, after 10 mM solution, scale 0 to 15): 2.6
- Sweetness intensity (mean) ([4]; Time 2.5 minute, on keeping 10 mL pure water, after 10 mM solution, scale 0 to 15): 2.1
- Sweetness intensity (mean) ([4]; Time 3 minute, on keeping 10 mL pure water, after 10 mM solution, scale 0 to 15): 1.4
- Sweetness intensity (mean) ([4]; Time 3.5 minute, on keeping 10 mL pure water, after 10 mM solution, scale 0 to 15): 1.4
- Sweetness intensity (mean) ([4]; Time 4 minute, on keeping 10 mL pure water, after 10 mM solution, scale 0 to 15): 0.9
- Sweetness intensity (mean) ([4]; Time 4.5 minute, on keeping 10 mL pure water, after 10 mM solution, scale 0 to 15): 0.5
- Sweetness intensity (mean) ([4]; Time 5 minute, on keeping 10 mL pure water, after 10 mM solution, scale 0 to 15): 0.5
